{"source": "BindingDB's records for doi:10.1016/j.ejmech.2019.05.053", "about": "(East China University of Science and Technology, 2019)", "assay": "Reversal of P-gp-mediated multidrug resistance in human MCF7/Dox cells assessed as potentiation of doxorubicin-induced cytotoxicity by measuring doxorubicin IC50 at 12.5 uM after 48 hrs by MTT assay (Rvb = 51.19 +/- 0.95 microM)"}
{"smiles": "COc1cc(OC)c(C(=O)/C=C/c2cccc(N3CCOCC3)c2)c(O)c1CC=C(C)C", "values": [{"measurement": "IC50", "result": 31.6, "unit": "µM"}]}
{"smiles": "COc1ccc(/C=C/C(=O)c2c(OC)cc(OC)c(CC=C(C)C)c2O)cc1", "values": [{"measurement": "IC50", "result": 20.7, "unit": "µM"}]}
{"smiles": "COc1cc(OC)c(C(=O)/C=C/c2ccc(Cl)cc2)c(O)c1CC=C(C)C", "values": [{"measurement": "IC50", "result": 21.8, "unit": "µM"}]}
{"smiles": "COc1cc(OC)c(C(=O)/C=C/c2ccc(N(C)C)cc2)c(O)c1CC=C(C)C", "values": [{"measurement": "IC50", "result": 17.4, "unit": "µM"}]}
{"smiles": "COc1cc(OC)c(C(=O)/C=C/c2cccc(F)c2)c(O)c1CC=C(C)C", "values": [{"measurement": "IC50", "result": 12.6, "unit": "µM"}]}
{"smiles": "COc1cc(OC)c(C(=O)/C=C/c2cccc(C(F)(F)F)c2)c(O)c1CC=C(C)C", "values": [{"measurement": "IC50", "result": 6.26, "unit": "µM"}]}
{"smiles": "COc1cc(OC)c(C(=O)/C=C/c2ccc(OC)c(OC)c2OC)c(O)c1CC=C(C)C", "values": [{"measurement": "IC50", "result": 27.5, "unit": "µM"}]}
{"smiles": "COc1cc(OC)c(C(=O)/C=C/c2cccc(N3CCN(C(=O)OC(C)(C)C)CC3)c2)c(O)c1CC=C(C)C", "values": [{"measurement": "IC50", "result": 20.1, "unit": "µM"}]}
{"smiles": "COc1cc(OC)c(C(=O)/C=C/c2ccc(N3CCN(C(=O)OC(C)(C)C)CC3)cc2)c(O)c1CC=C(C)C", "values": [{"measurement": "IC50", "result": 52.2, "unit": "µM"}]}
{"smiles": "COc1cc(O)c(C(=O)/C=C/c2cccc(N3CCN(C)CC3)c2)c(OC)c1", "values": [{"measurement": "IC50", "result": 18, "unit": "µM"}]}
{"smiles": "COc1cc(O)c(C(=O)/C=C/c2ccc(N3CCN(C(=O)OC(C)(C)C)CC3)cc2)c(OC)c1", "values": [{"measurement": "IC50", "result": 59.2, "unit": "µM"}]}
{"smiles": "COc1cc(O)c(C(=O)/C=C/c2cccc(N3CCN(C(=O)c4ccc(OC)c(OC)c4)CC3)c2)c(OC)c1", "values": [{"measurement": "IC50", "result": 42.3, "unit": "µM"}]}
{"smiles": "COc1ccc(C(=O)/C=C/c2cccc(N3CCNCC3)c2)c(OC)c1", "values": [{"measurement": "IC50", "result": 4.9, "unit": "µM"}]}
{"smiles": "CCc1c(OC)cc(OC)c(C(=O)/C=C/c2cccc(N3CCNCC3)c2)c1O", "values": [{"measurement": "IC50", "result": 4.69, "unit": "µM"}]}
{"smiles": "CCCCc1c(OC)cc(OC)c(C(=O)/C=C/c2cccc(N3CCNCC3)c2)c1O", "values": [{"measurement": "IC50", "result": 3.57, "unit": "µM"}]}
{"smiles": "CCCCCc1c(OC)cc(OC)c(C(=O)/C=C/c2cccc(N3CCNCC3)c2)c1O", "values": [{"measurement": "IC50", "result": 23.6, "unit": "µM"}]}
{"smiles": "COc1cccc(/C=C/C(=O)c2c(OC)cc(OC)c(CC=C(C)C)c2O)c1", "values": [{"measurement": "IC50", "result": 7.86, "unit": "µM"}]}
{"smiles": "COc1cc(OC)c(C(=O)/C=C/c2cccc(Cl)c2)c(O)c1CC=C(C)C", "values": [{"measurement": "IC50", "result": 9.39, "unit": "µM"}]}
{"smiles": "COc1cc(OC)c(C(=O)/C=C/c2cccc(N3CCNCC3)c2)c(O)c1CC=C(C)C", "values": [{"measurement": "IC50", "result": 1.02, "unit": "µM"}]}
{"smiles": "COc1cc(O)c(C(=O)/C=C/c2cccc(N3CCNCC3)c2)c(OC)c1", "values": [{"measurement": "IC50", "result": 2.63, "unit": "µM"}]}
{"smiles": "COc1cc(O)c(C(=O)/C=C/c2cccc(N3CCOCC3)c2)c(OC)c1", "values": [{"measurement": "IC50", "result": 18.8, "unit": "µM"}]}
{"smiles": "CCCc1c(OC)cc(OC)c(C(=O)/C=C/c2cccc(N3CCNCC3)c2)c1O", "values": [{"measurement": "IC50", "result": 5.12, "unit": "µM"}]}
{"smiles": "COc1c(C)c(O)c(C)c(O)c1C(=O)/C=C/c1ccccc1", "note": "[CHEBI:70658]", "values": [{"measurement": "IC50", "result": 24.7, "unit": "µM"}]}
